Assay results published in patent US11913884B2, “Visible light-activated dyes and methods of use thereof” (William Marsh Rice University, priority 2019, dated 2024).
Several values for one entry are separate records, joined by “and”; a condition that tells them apart may be missing. Identical values can stand only once.

Key:
[1] = Fluorescence quantum yield determination; format: physicochemical; conditions: DMSO; reference rhodamine B in ethanol or quinine sulfate in 0.5 M H2SO4
Description: The ^1H NMR spectroscopic measurements were carried out using a Bruker-600 NMR at 600 MHz with tetramethysilane (TMS) as internal reference. Electrospray ionization (ESI) mass spectra were performed on a Bruker MicroToF ESI LC-MS System in positive-ion mode. The steady-state absorption spectra were obtained with a ThermoFisher Evolution 220 UV-Vis spectrophotometer in 1 cm path length quartz cells. Fluorescence spectra were recorded using spectrophotometer (SPEX FluoroLog-3). Quantum yield in DMSO was measured relative to the fluorescence of Rhodamine B (Φ=0.65) in ethanol or quinine sulfate (Φ=0.55) in 0.5 M·L^−1 H2SO4. FT-IR spectrum was taken on a PerkinElmer Spectrum 100 FT-IR Spectrometers. Confocal fluorescent images of living cells were performed using Nikon A1R-si Laser Scanning Confocal Microscope (Japan), equipped with lasers of 405/488/561/638 nm. STORM images were performed on a NSTORM (Nikon, Japan), featuring a CFI Apo TIRF 100× oil objective (NA 1.49) on an inverted Nikon Ti Eclipse microscope with a quad cube filter (Chroma, zt405/488/561/640 m-TRF), piezo stage, and Perfect Focus System (Nikon) for Z-stability. Light source are hand-held UV lamp, BlueView Transilluminator (470 nm centred, Vernier), Prior Lumen200 with 615/30 filter and 850 LED (Mouser Electronics).
Quantum yields were measured with Rhodamine B as reference (Φ=0.65) or quinine sulfate (Φ=0.55) in 0.5 M H2SO4. Fluorescence measurements were performed in 1 cm quartz cells with 5 μM samples in DMSO on spectrophotometer (SPEX FluoroLog-3) (slits 5×5). The fluorescence quantum yield, Φ (sample), were calculated according to equation as following:
[formula] Φ: quantum yield; I: integrated emission intensity; OD: optical density at the excitation wavelength; d: refractive index of solvents, dDMSO=1.478; dethanol=1.36; dwater=1.33.

[2] = Photoactivation (turn-on) of thio-caged fluorophores in solution by light irradiation; format: physicochemical
Text: To determine whether a minimal one atom sulfur-for-oxygen substitution within fluorophores can lead to fluorescence quenching, thio-caged Nile Red (SNile Red, FIG. 1) was synthesized, in which a carbonyl group was replaced with a thiocarbonyl moiety. Treatment of Nile Red with Lawesson's reagent in refluxing benzene produced the desired SNile Red in a yield of 40%. […] Irradiation of SNile Red with red light (615 nm, 0.4 μW cm-2) led to the regeneration of fluorescent Nile Red in a high yield (FIG. 2A). The absorption maxima of SNile Red at 298, 368 and 652 nm were blue-shifted after desulfuration to 315 and 556 nm, in a good agreement with the absorption spectrum of authentic synthesized Nile Red (FIG. 2B). The A556/A652 value, representing the ratio of the absorbance maxima of Nile Red and SNile Red, increased from 0.25 to 30 after desulfuration reaction (FIG. 2B). Upon irradiation with red light, the fluorescence intensity of the desulfurated material at 626 nm increased 280-fold, accompanied by a change in fluorescence from dark to red (FIG. 2C). To evaluate the proper light source for SNile Red photoactivation, SNile Red was irradiated with either 470 nm, 615 nm, or 850 nm light for different times and fluorescence intensities at 626 nm were recorded. […] To further characterize the photoactivated product of SNile Red, ^1H NMR and ESI-MS spectral changes were measured in the process of photoactivation (FIG. 2A). […] Signals corresponding to phenyl moiety protons at 8.64, 8.62, 7.85, 7.73, 7.36, 7.04, and 6.79 ppm gradually disappeared, and were replaced by new signals appearing at 8.57, 8.13, 7.81, 7.72, 7.63, 6.85, 6.69 and 6.30 ppm, respectively. […] The photoactivated product was also characterized by ESI-mass spectrometric analysis FIG. 3). The observed m/z 319.2 corresponding to Nile Red confirms the photoactivation product of SNile Red is its oxo form. Both dialkylthioketones and diarylthioketones are known to undergo photo-oxidation reaction under oxygen and light to give the corresponding ketones (Coyle, 1985, Corsaro and Pistara, 1998). To investigate the effects of dissolved oxygen and light on the photoactivation of thio-caged fluorophores, the time profile of the fluorescence of SNile Red was measured in the presence or absence of light, or oxygen. […] To study the effect of oxygen during the photoactivation, the inventors prepared an oxygen-free SNile Red solution by bubbling nitrogen gas and irradiated at 615 nm. […] Inspired by the photoactivation mechanism of thioketones, it was hypothesized that singlet oxygen generated by self-sensitization can be the active species to oxidize thiocarbonyl groups within fluorophores (Coyle, 1985 and Corsaro and Pistara, 1998). […] The singlet oxygen quantum yield (DA) was further determined to be 0.36 with considering the absorption correction factor over the 600-630 nm region (Bonacin et al., 2009 and Adarsh et al., 2010) by referring to methylene blue (MB) (ΦΔ,MB=0.57 in dichloromethane; Li et al., 2013).
Encouraged by the excellent photoactivation properties of SNile Red, Lawesson's reagent was employed to introduce thiocarbonyl moieties into several different fluorophores, such as phthalimide (PI), coumarin (Cou) and acridone (ACD), obtaining yields ranging from 20-80% (FIG. 1). Next, characterization of the spectroscopic and photochemical properties of these thiocaged fluorophores and their oxidized products using UV-vis and fluorescence spectroscopies was performed (Table 1). […] Double thiocarbonyl substitution on 4-dimethylaminophthalimide (4-DMAP, FIG. 1) produced an even larger bathochromic shift of 166 nm. […] It was hypothesized that the red-shift and enhanced absorption seen with thiocarbonyl compounds were due to the reduced energy gap between the HOMO-LUMO in these fluorophores. This is consistent with the computational results discussed below. […]

CCN(CC)c1ccc2nc3c4ccccc4c(=S)cc-3oc2c1 [SNile Red]
ø (fluorescence quantum yield) [1]: <0.001 | fluorescence change at 626 nm with light of shorter wavelengths than 652 nm ([2]; 470 nm or 615 nm light): significant fluorescence enhancement | increase of fluorescence intensity at 626 nm ([2]; 615 nm light in air for 20 mins): 90 fold | activation by light out of the absorbance range ([2]; 850 nm, after 5 hrs): negligible activation | Turn-on (x-fold) ([2]; DMSO, footnote e: 470 nm, 0.4 μW cm^−2): 280^e x-fold | A556/A652 value ([2]; after desulfuration reaction): 30 | absorption maxima after desulfuration ([2]; after irradiation with red light (615 nm, 0.4 μW cm-2)): 315 nm and 556 nm | A556/A652 value ([2]; before desulfuration reaction): 0.25 | change of fluorescent spectrum ([2]; in the absence of light): no change | change of fluorescence intensity ([2]; oxygen-free solution (nitrogen bubbled), 615 nm, within 20 mins irradiation): no significant change | increase of fluorescence intensity at 626 nm (activation ratio) ([2]; upon irradiation with red light): 280 fold
